Paper PMC7334220, “Diamond Blackfan anemia is mediated by hyperactive Nemo-like kinase” (Nature Communications, 2020)
Where two headings read alike, the source gives them in different places. Blank lines part the entries; values can stand above or below the molecule they belong to.

Columns and labels:
[1] = target: T1, NLK (Homo sapiens, UniProt Q9UBE8); test: NLK in vitro kinase assay (NLK, c-Myb, Raptor substrates); type: biochemical
T1 construct: NLK, p38, or ALK5 for in vitro kinase assays were immunopurified from Kp53A1 cells; endogenous in cells; immunoprecipitated with anti-NLK (Abcam AB97642)
T1 sequence (Q9UBE8 1-527): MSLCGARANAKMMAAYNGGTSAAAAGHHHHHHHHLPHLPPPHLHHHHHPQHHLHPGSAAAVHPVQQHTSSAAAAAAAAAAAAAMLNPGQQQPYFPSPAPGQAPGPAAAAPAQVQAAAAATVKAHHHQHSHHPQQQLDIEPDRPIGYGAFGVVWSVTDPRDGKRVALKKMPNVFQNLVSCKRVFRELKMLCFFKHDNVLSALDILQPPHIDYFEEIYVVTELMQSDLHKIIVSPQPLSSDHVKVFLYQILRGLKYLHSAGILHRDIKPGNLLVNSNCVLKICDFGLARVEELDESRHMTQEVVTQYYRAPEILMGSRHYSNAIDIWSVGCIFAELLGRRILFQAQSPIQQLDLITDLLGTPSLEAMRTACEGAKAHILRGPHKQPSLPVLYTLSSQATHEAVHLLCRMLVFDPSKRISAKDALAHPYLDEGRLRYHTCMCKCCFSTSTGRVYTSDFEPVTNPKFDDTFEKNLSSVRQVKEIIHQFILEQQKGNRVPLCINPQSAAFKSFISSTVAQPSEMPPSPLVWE
Description: Equivalent protein was loaded between samples. b—blue Transduced progenitors were differentiated for 15 days and sorted for surface expression of CD235 + , CD41 + and CD11b + population NLK mRNA was assessed by qRT-PCR. c Control and shRPS19-transduced CB progenitors were differentiated for 10 days prior to separation into CD71^+ and CD71^- populations and assessed for pThr298-NLK phosphorylation by Western blot analysis. d—purple CB CD34 + progenitors were transduced with shRNA against luciferase (shLuc) or RPS19 (shRPS19) along with CFP-NLK and YFP-NLK and differentiated for 10 days. NLK dimerization was quantified by FRET. e—left panel NLK was immunoprecipitated from transduced differentiating CD71^+ and CD71^- populations after 10 days, and incubated in the presence of ATP, Mg^2+ and dephosphorylated NLK (i orange), c-Myb (ii—blue) and Raptor (iii—green) for 30 min at 37 °C. Phosphorylation was detected by a combination of anti^-phosphoserine-HRP and anti-phosphothreonine-HRP antibodies, or mouse anti-phosphoserine and anti-mouse-HRP antibodies. e—right panel For comparison, NLK in vitro kinase activity was assessed from CD235^+, CD41^+ and CD11b^+ populations enriched after identical treatments. f A panel of eight small molecule p38 inhibitors were titrated into in vitro kinase assays in the presence of activated NLK or p38 from stimulated Kp53A1 cells. The IC50 for NLK and p38 for each compound was calculated. The data are represented diagrammatically with IC50 values represented as vertical lines along a concentration gradient for NLK and p38. Kinase activity is represented as blue and the extent of inhibition is depicted in white. […] Bars represent means ± SD with individual data points overlaid. n = 3 independent experiments performed in triplicate.Statistics: two-tailed Student’s t test, significant *p < 0.05. Also see Supplementary Figs. 3 and 4. Source data are provided as a Source Data file. […] Inhibitors were added to cells at indicated concentrations with a final DMSO concentration of 0.5%. […] IC50 calculations were obtained using 8–9 concentrations of compound and generated using the IC50 Calculator software by AAT Bioquest®. NLK, p38, or ALK5 for in vitro kinase assays were immunopurified from Kp53A1 cells. NLK activation was induced by incubating cells at 32° for 24-48 h, p38 by stimulating with IL-3, IL-6, SCF, and Epo at the same concentrations used for differentiating erythroid progenitors.
For NLK kinase analysis, cultures were treated as indicated and lysed for 30 min at 4 °C in 750 μl of kinase lysis buffer (50 mM Tris [pH 7.4], 5 mM EDTA, 250 mM NaCl, 0.1% Triton X-100, 50 mM NaF, 0.1 trypsin inhibitor unit of aprotinin per ml, 50 μg of phenylmethylsulfonyl fluoride per ml, 100 μM sodium vanadate, 1 μg of leupeptin per ml). For TGFβR1 kinase analysis, cells were lysed in membrane kinase buffer (10 mM Tris-HCl (pH8.0), 140 mM NaCl, 300 mM KCl, 0.5% Triton X-100, and 0.5% sodium deoxycholate with complete protease inhibitor cocktail (Roche)). Extracts were clarified, and equivalent protein was incubated overnight at 4 °C with antibody (NLK: #AB97642; Abcam, TGFβR1: V22; Santa Cruz Biotechnology). Immune complexes were collected with Catch and Release® V2.0 Reversible Immunoprecipitation System and diluted in kinase buffer (25 mM Tris [pH 7.4], 10 mM MgCl2, 1 mM dithiothreitol). When cell numbers were limiting, NLK activity was amplified by adding 0.5 µg dephosphorylated NLK prior to performing kinase reaction. 50 μl of kinase buffer containing NLK or TGFβR1 sample and 5 μM ATP was incubated in the presence of biotinylated substrate (NLK, c-Myb, or Raptor for NLK and Smad2 or Smad3 for TGFβR1) immobilized on streptavidin-coated 96-well plates.

[2] = test system: RPS19-insufficient cord blood CD34+ HSPCs; test: In vitro differentiation of cord blood CD34+ HSPCs transduced with shRNA against RPS19 (cell count and flow cytometry); type: cell-based, human
Description: Cells were plated at 2000 cell per well in 96-well plates in the presence or absence of doxycycline. Relative amounts of live cells were quantified by luciferase-based Cell titer-Glo® assay. b TGFβR1 inhibitors were assessed for their ability to increase cell expansion in RPS19-insuffiency. As a control, vehicle alone (no doxycycline) is represented at the far left while all other samples were treated with doxycycline to induce RPS19-insufficiency. c Kit^+ erythroid progenitors were grown in the absence of doxycycline and in the presence of 10 µM of indicated compound. In addition, cells were treated with 5 ng/ml of TGFβ1 for 5 days before being subjected to Cell titer-Glo® assay. d Differentiating cord blood CD34^+ progenitors were transduced with shRNA against luciferase or RPS19 and treated with inhibitors at working concentrations for TGFβ inhibition every three days. […] Cells were counted and CD235^+ erythroid (i and iii) and CD11b^+ myeloid cell (ii and iv) percentages were determined by flow cytometry. The number of erythroid or myeloid cells is expressed as a percentage of the number of that lineage with no cytokine or drug treatment. Bars represent means ± SD with individual data points overlaid. n = 3 independent experiments performed in triplicate. Statistics: two-tailed Student’s t test, significant *p < 0.05. Also see Supplementary Fig. 1. Erythroid expansion is depicted in red while myeloid is in purple. Source data are provided as a Source Data file.
Cells were counted and assessed for cell surface expression of CD235. b Lin-Kit^+ hematopoietic progenitors were obtained from three mouse embryos expressing tetracycline-inducible shRNA against RPS19 at day E14.5 or three untreated mice, and thee mature RPL11^+/+ or three mature RPL11^+/lox mice treated with tamoxifen for eight weeks. […] Values were expressed as a percentage relative to untreated controls. c, d Intracellular phosphorylation of NLK at Thr298 was determined by capillary electrophoresis using the Peggy Sue™ Automated Western blotting platform. After lysis, 4 µg of protein from the CD235^+ population was probed against pThr298-NLK and normalized to GAPDH. […] After counting the total cell population, the ratio of CD235^+ erythroblasts was determined by flow cytometry and number of CD235^+ erythroblasts calculated. This was expressed as a percentage of the average number of erythroid cells present in untreated healthy controls. f NLK phosphorylation was assessed by capillary electrophoresis as above. Bars represent means ± SD with individual data points overlaid. […] Statistics: two-tailed Student’s t test, significant *p < 0.05. Also see Supplementary Fig. 8. Source data are provided as a Source Data file.
Primary human CD34^+ hematopoietic stem and progenitor cells were purified from cord or peripheral blood (New York Blood Center) or from human fetal liver tissue (Advanced Bioscience Resources and University of California, Los Angeles Center for AIDS Research) by using magnetic-activated cell sorting (Miltenyi Biotec) and were cryopreserved. Upon thawing, cells were cultured in x-Vivo15 media (Lonza) containing 10% fetal bovine serum, fms-related tyrosine kinase 3 (50 ng/ml), […] (50 ng/ml), interleukin-3 (IL-3; 20 ng/ml), interleukin-6 (IL-6; 20 ng/ml), and stem cell factor (50 ng/ml). When applied, TGFβ1 was added at 5 ng/ml. Kp53A1 cells were obtained from Javier Leon and cultured in DMEM supplemented with 10% fetal bovine serum at 37 or 32 °C.

[3] = test system: p38; conditions: reported, no reference given; read-out: reported IC50 against p38; cited from earlier work
[4] = test system: ribosome-competent cord blood CD34+ HSPCs (shLuc); test: In vitro differentiation of cord blood CD34+ HSPCs transduced with control shRNA (luciferase); type: cell-based, human; conditions: ribosome-competent cells; 5 ng/ml TGFβ1; 5 µM compound; 15 days; Fig. 1e
Description: Lin-Kit^+ fetal liver cells were obtained from mouse embryos expressing tet-on shRNA against RPS19, at day E14.5-15.5. Cells were plated at 2000 cell per well in 96-well plates in the presence or absence of doxycycline. Relative amounts of live cells were quantified by luciferase-based Cell titer-Glo® assay. b TGFβR1 inhibitors were assessed for their ability to increase cell expansion in RPS19-insuffiency. As a control, vehicle alone (no doxycycline) is represented at the far left while all other samples were treated with doxycycline to induce RPS19-insufficiency. c Kit^+ erythroid progenitors were grown in the absence of doxycycline and in the presence of 10 µM of indicated compound. In addition, cells were treated with 5 ng/ml of TGFβ1 for 5 days before being subjected to Cell titer-Glo® assay. d Differentiating cord blood CD34^+ progenitors were transduced with shRNA against luciferase or RPS19 and treated with inhibitors at working concentrations for TGFβ inhibition every three days. […] Cells were counted and CD235^+ erythroid (i and iii) and CD11b^+ myeloid cell (ii and iv) percentages were determined by flow cytometry. The number of erythroid or myeloid cells is expressed as a percentage of the number of that lineage with no cytokine or drug treatment. […]
Fig. 8 NLK inhibition increases expansion of erythroid progenitors from human and murine models of DBA. a Human cord blood CD34^+ progenitors were transduced with lentivirus co-expressing GFP with shRNA against luciferase (shLuc), RPS19 (shRPS19), or RPL11 (shRPL11). […] Cells were counted and assessed for cell surface expression of CD235. b Lin-Kit^+ hematopoietic progenitors were obtained from three mouse embryos expressing tetracycline-inducible shRNA against RPS19 at day E14.5 or three untreated mice, and thee mature RPL11^+/+ or three mature RPL11^+/lox mice treated with tamoxifen for eight weeks. […] Values were expressed as a percentage relative to untreated controls. c, d Intracellular phosphorylation of NLK at Thr298 was determined by capillary electrophoresis using the Peggy Sue™ Automated Western blotting platform. […]

[5] = Fig. 3f, activated NLK from stimulated Kp53A1 cells, read-out: NLK Observed IC50

IC50 [1, 5]: 3.6 nM
SMILES: Cn1c(NC[C@@H](N)Cc2ccccc2)nc(-c2ccncc2)c(-c2ccc3ccccc3c2)c1=O [AMG-548]

SMILES: Cc1cccc(-c2nn3c(c2-c2ccnc4ccc(C(N)=O)cc24)CCC3)n1 [Galunisertib]
IC50 ([1]; Supplementary Fig. 1e, read-out: IC50 against NLK): 1340 nM
inhibition of NLK-mediated phosphorylation of NLK substrates NLK, c-Myb and Raptor ([1]; added to activated NLK in vitro, Supplementary Fig. 1c): 40–45%
increase of erythropoiesis in RPS19-insufficiency compared with control treated cells ([2]; CD235+ erythroid cells after 15 days, inhibitors at working concentrations for TGFβ inhibition every three days, Fig. 1d): 3.2 fold
IC50 [3]: 405 nM

SMILES: C[S+]([O-])c1ccc(-c2nc(-c3ccncc3)c(-c3ccc(F)cc3)[nH]2)cc1 (centres unmarked) [SB203580]
erythroid expansion (CD235) in RPS19-insufficient HSPCs ([2]; 12 days, recommended concentrations, rebuttal Experiment 12): significantly increased
improvement of erythropoiesis (comparison of SD208 with p38 inhibitors) ([2]; CD235+, 12 days, recommended concentrations, Supplementary Fig. 2b): improved erythropoiesis

SMILES: Cc1cccc(-c2[nH]c(C(C)(C)C)nc2-c2ccc3nccnc3c2)n1 [SB525334]
restoration of erythroid and myeloid expansion of TGFβ-treated cells [4]: restored
erythropoiesis, % of controls, in TGFβ-treated cells ([2]; RPS19-insufficient cells, 5 ng/ml TGFβ1, 5 µM, Fig. 1e.iii): 128.6%
effect on erythropoiesis of cells not treated with TGFβ ([2]; RPS19-insufficient cells, 5 µM, Fig. 1e.iii): did not influence

IC50 [1, 5]: 9300 nM
SMILES: CCc1nc(-c2cccc(C)c2)c(-c2ccnc(NC(=O)c3ccccc3)c2)s1 [TAK-715]
